From patent US8471005B2 (Cephalon, Inc., priority 2008, dated 2013)
Read-outs that look alike come from different tables or passages of the source.

Tests used:
ALK = biological target: T1, ALK (Homo sapiens, UniProt Q9UM73); assay: ALK Kinase Assay (ELISA/TRF, PLC-γ substrate); type: biochemical; conditions: read-out: ALK Potency
T1 construct: host or cells: baculovirus expression system
Procedure, shortened: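 PLC-γ substrate coated at 10 μg/mL in TBS; reaction started with 30 ng/ml ALK, run 15 min at 37° C. Phosphoproduct detected by TRF with Eu-N1-labeled PT66 anti-phosphotyrosine antibody. IC50 from sigmoidal variable-slope fit of percent inhibition versus log concentration.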

JAK2 = biological target: T2, JAK2 (Homo sapiens, UniProt O60674); assay: Recombinant Human JAK2 Kinase Assay (TRF); type: biochemical; conditions: read-out: JAK2 Potency
T2 construct: host or cells: baculovirus expression system
T2 sequence (O60674 whole entry): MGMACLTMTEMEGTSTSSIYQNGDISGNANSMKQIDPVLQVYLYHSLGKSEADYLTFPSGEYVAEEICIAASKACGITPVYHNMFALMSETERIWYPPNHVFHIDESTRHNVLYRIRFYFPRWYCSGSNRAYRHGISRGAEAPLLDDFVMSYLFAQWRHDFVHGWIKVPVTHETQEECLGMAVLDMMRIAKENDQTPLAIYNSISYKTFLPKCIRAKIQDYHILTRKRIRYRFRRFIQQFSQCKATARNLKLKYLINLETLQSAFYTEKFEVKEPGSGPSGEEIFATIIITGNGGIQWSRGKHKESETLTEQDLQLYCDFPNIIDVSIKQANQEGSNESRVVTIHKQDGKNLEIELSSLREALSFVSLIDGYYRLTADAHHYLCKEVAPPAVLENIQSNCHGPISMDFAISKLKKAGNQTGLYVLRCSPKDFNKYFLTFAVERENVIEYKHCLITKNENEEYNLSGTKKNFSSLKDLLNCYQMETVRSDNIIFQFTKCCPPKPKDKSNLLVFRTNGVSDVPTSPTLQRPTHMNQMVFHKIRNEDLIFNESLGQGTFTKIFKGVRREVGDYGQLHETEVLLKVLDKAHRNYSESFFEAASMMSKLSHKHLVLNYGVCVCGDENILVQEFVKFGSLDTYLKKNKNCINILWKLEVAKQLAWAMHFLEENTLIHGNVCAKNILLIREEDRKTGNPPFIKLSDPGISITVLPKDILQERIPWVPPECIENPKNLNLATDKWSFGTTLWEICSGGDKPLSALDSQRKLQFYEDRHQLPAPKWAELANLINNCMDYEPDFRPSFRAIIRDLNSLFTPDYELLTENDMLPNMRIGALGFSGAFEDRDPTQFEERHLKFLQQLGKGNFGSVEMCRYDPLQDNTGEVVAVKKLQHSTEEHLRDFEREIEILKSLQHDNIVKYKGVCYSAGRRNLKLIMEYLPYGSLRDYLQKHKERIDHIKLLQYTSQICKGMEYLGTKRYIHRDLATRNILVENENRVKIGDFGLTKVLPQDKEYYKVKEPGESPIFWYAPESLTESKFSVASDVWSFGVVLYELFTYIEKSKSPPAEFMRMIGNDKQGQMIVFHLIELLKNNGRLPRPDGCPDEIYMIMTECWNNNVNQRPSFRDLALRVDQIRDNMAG
Procedure, shortened: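 Baculovirus-expressed JAK2 (15 ng/ml) phosphorylated a biotinylated 15-mer peptide captured on Neutravidin-coated plates, in 20 mM HEPES pH 7.2 with 0.2 μM ATP, 1 mM MnCl2, 0.1% BSA and 2.5% DMSO. Reaction ran 20 min at room temperature; phosphopeptide was detected by time-resolved fluorescence with Eu-N1-labelled PY100 antibody.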

[1] = ALK kinase inhibition, 1 μM ATP
[2] = JAK2 kinase inhibition, 0.2 μM ATP

T1 sequence (Q9UM73 19-1620): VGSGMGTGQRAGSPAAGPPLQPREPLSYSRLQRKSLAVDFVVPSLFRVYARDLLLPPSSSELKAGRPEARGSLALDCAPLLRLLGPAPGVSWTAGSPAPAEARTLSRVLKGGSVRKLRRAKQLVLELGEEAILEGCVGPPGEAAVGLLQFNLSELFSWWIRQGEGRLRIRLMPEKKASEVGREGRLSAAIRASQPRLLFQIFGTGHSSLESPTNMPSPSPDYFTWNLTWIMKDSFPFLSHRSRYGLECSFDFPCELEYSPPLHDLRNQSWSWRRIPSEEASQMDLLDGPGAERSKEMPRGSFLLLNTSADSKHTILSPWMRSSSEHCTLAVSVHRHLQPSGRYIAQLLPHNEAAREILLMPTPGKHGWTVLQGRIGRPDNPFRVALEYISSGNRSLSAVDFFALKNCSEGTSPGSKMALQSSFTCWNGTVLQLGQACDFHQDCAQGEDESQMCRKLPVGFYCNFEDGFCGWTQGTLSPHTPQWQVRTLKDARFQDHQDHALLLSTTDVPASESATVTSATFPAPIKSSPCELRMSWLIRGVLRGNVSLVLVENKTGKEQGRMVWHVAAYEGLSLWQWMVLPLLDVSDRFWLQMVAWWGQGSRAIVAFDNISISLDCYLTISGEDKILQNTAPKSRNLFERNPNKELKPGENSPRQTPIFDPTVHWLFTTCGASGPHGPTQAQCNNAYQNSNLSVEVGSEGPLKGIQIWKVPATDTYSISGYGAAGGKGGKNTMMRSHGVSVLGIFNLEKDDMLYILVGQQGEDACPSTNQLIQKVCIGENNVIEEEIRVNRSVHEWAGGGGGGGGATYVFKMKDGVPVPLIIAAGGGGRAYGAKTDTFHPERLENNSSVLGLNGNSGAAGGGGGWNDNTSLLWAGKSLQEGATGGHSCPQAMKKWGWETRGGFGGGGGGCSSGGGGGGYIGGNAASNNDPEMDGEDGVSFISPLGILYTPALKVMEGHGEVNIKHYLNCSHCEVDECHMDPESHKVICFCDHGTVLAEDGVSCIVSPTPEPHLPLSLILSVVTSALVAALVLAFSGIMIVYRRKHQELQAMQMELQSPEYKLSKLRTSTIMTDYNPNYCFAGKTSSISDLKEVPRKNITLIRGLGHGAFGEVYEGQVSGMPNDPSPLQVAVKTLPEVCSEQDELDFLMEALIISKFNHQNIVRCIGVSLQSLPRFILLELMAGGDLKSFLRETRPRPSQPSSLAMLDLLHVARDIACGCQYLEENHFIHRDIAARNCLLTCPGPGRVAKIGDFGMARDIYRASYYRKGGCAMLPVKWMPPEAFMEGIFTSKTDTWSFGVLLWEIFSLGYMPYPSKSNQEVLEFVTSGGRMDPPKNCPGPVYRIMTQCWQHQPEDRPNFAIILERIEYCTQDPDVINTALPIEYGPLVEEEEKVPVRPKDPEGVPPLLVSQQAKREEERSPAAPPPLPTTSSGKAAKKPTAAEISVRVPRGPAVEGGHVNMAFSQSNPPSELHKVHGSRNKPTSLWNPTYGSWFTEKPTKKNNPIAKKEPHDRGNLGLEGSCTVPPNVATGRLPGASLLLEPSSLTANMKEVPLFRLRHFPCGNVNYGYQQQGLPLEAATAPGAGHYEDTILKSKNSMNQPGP

SMILES | IC50 (ALK; ALK Kinase Inhibition) [µM] | IC50 (JAK2; JAK2 Kinase Inhibition) [µM] | IC50 (ALK; [1]) [µM] | IC50 (JAK2; [2]) [µM]
CS(=O)(=O)c1ccc(-c2ccc3cnc(-n4cnc5cnccc54)nn23)cc1 [Example 330, 1-[7-(4-Methanesulfonyl-phenyl)-pyrrolo[2,1-f][1,2,4]triazin-2-yl]-1H-imidazo[4,5-c]pyridine] | 1 to 10 | 1 to 10 |  | 
COc1ccc(-c2ccc3cnc(Nc4ccc(C5CCN(CC(N)=O)CC5)cc4OC)nn23)c(OC)c1 [Example 745, 2-(4-{4-[7-(2,4-Dimethoxy-phenyl)-pyrrolo[2,1-f][1,2,4]triazin-2-ylamino]-3-methoxy-phenyl}-piperidin-1-yl)-acetamide] |  |  | < 0.1 | 1 to 10
COc1cc(CCN2CCOCC2)ccc1Nc1ncc2ccc(-c3ccccc3N(C)S(C)(=O)=O)n2n1 [Example 493, N-(2-{2-[2-Methoxy-4-(2-morpholin-4-yl-ethyl)-phenylamino]-pyrrolo[2,1-f][1,2,4]triazin-7-yl}-phenyl)-N-methyl-methanesulfonamide] |  |  | < 0.1 | 0.1 to 1
COc1cc(C2CCNCC2)ccc1Nc1ncc2ccc(-c3ccccc3OC)n2n1 [Example 820, [7-(2-Methoxy-phenyl)-pyrrolo[2,1-f][1,2,4]triazin-2-yl]-(2-methoxy-4-piperidin-4-yl-phenyl)-amine] |  |  | < 0.1 | 0.1 to 1
COc1cc(N2CCC(N3CCN(S(C)(=O)=O)CC3)CC2)ccc1Nc1ncc2ccc(-c3ccccc3OC)n2n1 [Example 535, {4-[4-(4-Methanesulfonyl-piperazin-1-yl)-piperidin-1-yl]-2-methoxy-phenyl}-[7-(2-methoxy-phenyl)-pyrrolo[2,1-f][1,2,4]triazin-2-yl]-amine] |  |  | < 0.1 | < 0.1
CN(C)c1cccc(CNc2ncc3c(-c4ccc(F)cc4)ccn3n2)c1 [Example 729, (3-Dimethylamino-benzyl)-[5-(4-fluoro-phenyl)-pyrrolo[2,1-f][1,2,4]triazin-2-yl]-amine] |  |  | > 10 | 1 to 10
COc1cc(C2CCN(CC(N)=O)CC2)ccc1Nc1ncc2ccc(-c3ccc(C)cc3N(C)S(C)(=O)=O)n2n1 [Example 1280, 2-[4-(4-{7-[2-(Methanesulfonyl-methyl-amino)-4-methyl-phenyl]-pyrrolo[2,1-f][1,2,4]triazin-2-ylamino}-3-methoxy-phenyl)-piperidin-1-yl]-acetamide] |  |  | < 0.1 | 0.1 to 1
CC(=O)Nc1cc(Nc2ncc3ccc(-c4ccc(S(C)(=O)=O)cc4)n3n2)ccc1C(C)(C)C [Example 326, N-{2-tert-Butyl-5-[7-(4-methanesulfonyl-phenyl)-pyrrolo[2,1-f][1,2,4]triazin-2-ylamino]-phenyl}-acetamide] | > 10 | < 0.1 |  | 
CC(=O)Nc1cc(Nc2ncc3ccc(-c4cccc(S(=O)(=O)NC(C)(C)C)c4)n3n2)ccc1Cl [Example 888, N-{5-[7-(3-tert-Butylsulfamoyl-phenyl)-pyrrolo[2,1-f][1,2,4]triazin-2-ylamino]-2-chloro-phenyl}-acetamide] |  |  | 0.1 to 1 | < 0.1
COc1cc(C2CCN(CC(N)=O)CC2)ccc1Nc1ncc2ccc(-c3ccccc3N(C)S(C)(=O)=O)n2n1 [Example 812, 2-[4-(4-{7-[2-(Methanesulfonyl-methyl-amino)-phenyl]-pyrrolo[2,1-f][1,2,4]triazin-2-ylamino}-3-methoxy-phenyl)-piperidin-1-yl]-acetamide] |  |  | < 0.1 | 0.1 to 1
COc1cc(C2CCN(CC(=O)OC(C)(C)C)CC2)ccc1Nc1ncc2ccc(-c3ccccc3OC)n2n1 [Example 1277, (4-{3-Methoxy-4-[7-(2-methoxy-phenyl)-pyrrolo[2,1-f][1,2,4]triazin-2-ylamino]-phenyl}-piperidin-1-yl)-acetic acid tert-butyl ester] |  |  | 0.1 to 1 | 1 to 10
CN(c1ccccc1-c1ccc2cnc(Nc3ccc(C4CCN(CC(N)=O)CC4)cc3)nn12)S(C)(=O)=O [Example 1408, 2-[4-(4-{7-[2-(Methanesulfonyl-methyl-amino)-phenyl]-pyrrolo[2,1-f][1,2,4]triazin-2-ylamino}-phenyl)-piperidin-1-yl]-acetamide] | < 0.1 | < 0.1 |  | 
c1cc(N2CCOCC2)ccc1Nc1ncc2ccc(C3CCCCC3)n2n1 [Example 127, (7-Cyclohexyl-pyrrolo[2,1-f][1,2,4]triazin-2-yl)-(4-morpholin-4-yl-phenyl)-amine] | > 10 | < 0.1 |  | 
CN1C(=O)COc2cc(Nc3ncc4ccc(-c5ccccc5N(C)S(C)(=O)=O)n4n3)ccc21 [Example 640, N-Methyl-N-{2-[2-(4-methyl-3-oxo-3,4-dihydro-2H-benzo[1,4]oxazin-7-ylamino)-pyrrolo[2,1-f][1,2,4]triazin-7-yl]-phenyl}-methanesulfonamide] |  |  | 0.1 to 1 | < 0.1

Further lines, results first:

IC50 (ALK; ALK Kinase Inhibition) [µM] | IC50 (JAK2; JAK2 Kinase Inhibition) [µM] | IC50 (ALK; [1]) [µM] | IC50 (JAK2; [2]) [µM] | SMILES
1 to 10 | < 0.1 |  |  | CN1CCN(c2ccc(Nc3ncc4ccc(-c5ccccc5S(C)(=O)=O)n4n3)cc2)CC1 [Example 406, [7-(2-Methanesulfonyl-phenyl)-pyrrolo[2,1-f][1,2,4]triazin-2-yl]-[4-(4-methyl-piperazin-1-yl)-phenyl]-amine]
1 to 10 | < 0.1 |  |  | CN1CCN(C(=O)c2cccc(Nc3ncc4ccc(-c5cccnc5)n4n3)c2)CC1 [Example 341, (4-Methyl-piperazin-1-yl)-[3-(7-pyridin-3-yl-pyrrolo[2,1-f][1,2,4]triazin-2-ylamino)-phenyl]-methanone]
1 to 10 | < 0.1 |  |  | Clc1cccc(-c2ccc3cnc(Nc4ccc(N5CCCC5)cc4)nn23)c1 [Example 167, [7-(3-Chloro-phenyl)-pyrrolo[2,1-f][1,2,4]triazin-2-yl]-(4-pyrrolidin-1-yl-phenyl)-amine]
0.1 to 1 | < 0.1 |  |  | CCN(CC)C(=O)c1ccccc1-c1ccc2cnc(Nc3ccc(N4CCN(C)CC4)cc3)nn12 [Example 407, N,N-Diethyl-2-{2-[4-(4-methyl-piperazin-1-yl)-phenylamino]-pyrrolo[2,1-f][1,2,4]triazin-7-yl}-benzamide]
 |  | 1 to 10 | < 0.1 | Cc1nc(-c2ccc3cnc(Nc4ccc(N5CCOCC5)cc4)nn23)cn1C [Example 1044, [7-(1,2-Dimethyl-1H-imidazol-4-yl)-pyrrolo[2,1-f][1,2,4]triazin-2-yl]-(4-morpholin-4-yl-phenyl)-amine]
 |  | 0.1 to 1 | < 0.1 | CN1CCC(c2ccc(Nc3ncc4ccc(-c5ccn(C)n5)n4n3)cc2)CC1 [Example 954, [4-(1-Methyl-piperidin-4-yl)-phenyl]-[7-(1-methyl-1H-pyrazol-3-yl)-pyrrolo[2,1-f][1,2,4]triazin-2-yl]-amine]
0.1 to 1 | < 0.1 |  |  | COc1ccc(Nc2ncc3ccc(-c4cccc(NS(C)(=O)=O)c4)n3n2)cc1N1CCOCC1 [Example 395, N-{3-[2-(4-Methoxy-3-morpholin-4-yl-phenylamino)-pyrrolo[2,1-f][1,2,4]triazin-7-yl]-phenyl}-methanesulfonamide]
 |  | 1 to 10 | < 0.1 | CN1CCN(c2cccc(Nc3ncc4ccc(NCc5cccnc5)n4n3)c2)CC1 [Example 1168, N-(2)-[3-(4-Methyl-piperazin-1-yl)-phenyl]-N(7)-pyridin-3-ylmethyl-pyrrolo[2,1-f][1,2,4]triazine-2,7-diamine]
 |  | 0.1 to 1 | < 0.1 | COc1ccccc1-c1ccc2cnc(Nc3ccc4c(c3)CN(CC(N)=O)C4)nn12 [Example 925, 2-{5-[7-(2-Methoxy-phenyl)-pyrrolo[2,1-f][1,2,4]triazin-2-ylamino]-1,3-dihydro-isoindol-2-yl}-acetamide]
 |  | 0.1 to 1 | < 0.1 | Cn1cnc2ccc(Nc3ncc4ccc(-c5ccccc5NS(C)(=O)=O)n4n3)cc21 [Example 1310, N-{2-[2-(3-Methyl-3H-benzoimidazol-5-ylamino)-pyrrolo[2,1-f][1,2,4]triazin-7-yl]-phenyl}-methanesulfonamide]
0.1 to 1 | < 0.1 |  |  | COc1ccccc1-c1ccc2cnc(Nc3cccc(C(=O)N4CCN(C)CC4)c3)nn12 [Example 338, {3-[7-(2-Methoxy-phenyl)-pyrrolo[2,1-f][1,2,4]triazin-2-ylamino]-phenyl}-(4-methyl-piperazin-1-yl)-methanone]
 |  | 1 to 10 | > 10 | COc1cc(-c2cccnc2)ccc1Nc1ncc2ccc(-c3ccccc3OC)n2n1 [Example 807, [7-(2-Methoxy-phenyl)-pyrrolo[2,1-f][1,2,4]triazin-2-yl]-(2-methoxy-4-pyridin-3-yl-phenyl)-amine]
0.1 to 1 | < 0.1 |  |  | CN(c1ccccc1-c1ccc2cnc(Nc3ccc4nc(CN5CCN(CCO)CC5)[nH]c4c3)nn12)S(C)(=O)=O [Example 1521, N-[2-(2-{2-[4-(2-Hydroxy-ethyl)-piperazin-1-ylmethyl]-3H-benzimidazol-5-ylamino}-pyrrolo[2,1-f][1,2,4]triazin-7-yl)-phenyl]-N-methyl-methanesulfonamide]
 |  | 0.1 to 1 | < 0.1 | CC(C)(C)NS(=O)(=O)c1cccc(-c2ccc3cnc(Nc4ccc5c(c4)CCN(CC(N)=O)C5)nn23)c1 [Example 920, 2-{6-[7-(3-tert-Butylsulfamoyl-phenyl)-pyrrolo[2,1-f][1,2,4]triazin-2-ylamino]-3,4-dihydro-1H-isoquinolin-2-yl}-acetamide]
 |  | 1 to 10 | < 0.1 | CN1C(=O)COc2cc(Nc3ncc4ccc(-c5cccnc5)n4n3)ccc21 [Example 649, 4-Methyl-7-(7-pyridin-3-yl-pyrrolo[2,1-f][1,2,4]triazin-2-ylamino)-4H-benzo[1,4]oxazin-3-one]
